Test results published in publication PMC9910069 (ACS Omega, 2023).

Key:
[1] = molecular target: Electric eel AChE (type-VI-S) (Electrophorus electricus, UniProt O42275); test: Anti-cholinesterase inhibition assay; assay type: biochemical
equine BChE = equine BChE (Equus caballus, UniProt P81908); test: Anti-cholinesterase inhibition assay; assay type: biochemical
Sequence of equine BChE (P81908 whole entry): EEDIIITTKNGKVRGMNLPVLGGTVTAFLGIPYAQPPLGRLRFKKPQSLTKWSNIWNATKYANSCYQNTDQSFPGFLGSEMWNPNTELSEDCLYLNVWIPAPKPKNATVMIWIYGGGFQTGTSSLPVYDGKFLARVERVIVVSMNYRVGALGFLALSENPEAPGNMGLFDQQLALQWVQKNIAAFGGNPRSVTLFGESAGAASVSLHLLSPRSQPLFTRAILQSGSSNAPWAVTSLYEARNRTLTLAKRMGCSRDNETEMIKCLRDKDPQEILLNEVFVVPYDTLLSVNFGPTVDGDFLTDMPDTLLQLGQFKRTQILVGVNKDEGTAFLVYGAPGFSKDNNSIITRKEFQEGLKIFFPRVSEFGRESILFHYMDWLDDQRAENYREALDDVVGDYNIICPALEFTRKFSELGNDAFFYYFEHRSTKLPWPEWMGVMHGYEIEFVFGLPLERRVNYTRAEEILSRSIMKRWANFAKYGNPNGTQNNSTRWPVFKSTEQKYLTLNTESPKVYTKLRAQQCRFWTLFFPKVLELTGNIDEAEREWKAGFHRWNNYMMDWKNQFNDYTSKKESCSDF

Sequence of Electric eel AChE (type-VI-S) (O42275 24-633): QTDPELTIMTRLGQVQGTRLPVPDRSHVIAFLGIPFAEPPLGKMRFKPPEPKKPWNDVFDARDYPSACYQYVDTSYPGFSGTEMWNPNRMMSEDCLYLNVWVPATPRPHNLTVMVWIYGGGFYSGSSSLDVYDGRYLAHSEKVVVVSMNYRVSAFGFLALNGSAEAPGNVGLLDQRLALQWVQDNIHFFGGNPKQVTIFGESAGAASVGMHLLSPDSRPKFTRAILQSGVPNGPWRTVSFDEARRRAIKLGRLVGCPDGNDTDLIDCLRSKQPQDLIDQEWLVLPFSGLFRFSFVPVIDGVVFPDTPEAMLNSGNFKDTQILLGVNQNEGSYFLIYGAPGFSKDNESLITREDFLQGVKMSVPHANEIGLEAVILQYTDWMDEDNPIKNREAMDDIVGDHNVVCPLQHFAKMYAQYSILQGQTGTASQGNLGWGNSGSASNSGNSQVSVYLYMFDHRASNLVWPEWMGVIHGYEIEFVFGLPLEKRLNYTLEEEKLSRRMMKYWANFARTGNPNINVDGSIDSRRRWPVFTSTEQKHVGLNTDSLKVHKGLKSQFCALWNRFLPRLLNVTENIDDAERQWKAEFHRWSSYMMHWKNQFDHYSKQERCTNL

CCOc1ccc(C=NNC(=S)NCC(=O)c2cccc(C)c2)cc1 [Compound 5, 2-(4-Ethoxybenzylidene)-N-(2-oxo-2-(m-tolyl)ethyl)hydrazine-1-carbothioamide]
IC50 [1]: 295.12 ± 0.12 µM

CCOc1ccc(C=NNC(=S)NCC(=O)c2ccc(Br)cc2)cc1 [Compound 6, N-(2-(4-Bromophenyl)-2-oxoethyl)-2-(4-ethoxybenzylidene)hydrazine-1-carbothioamide]
IC50 (equine BChE): 190.21 ± 0.13 µM | IC50 [1]: 160.04 ± 0.02 µM

CCOc1ccc(C=NNC(=S)NCC(=O)c2ccc(Cl)cc2)cc1 [Compound 7, N-(2-(4-Chlorophenyl)-2-oxoethyl)-2-(4-ethoxybenzylidene)hydrazine-1-carbothioamide]
IC50 [1]: 140.52 ± 0.11 µM

CCOc1ccc(C=NNC(=S)NCC(=O)c2ccccc2)cc1 [Compound 8, 2-(4-Ethoxybenzylidene)-N-(2-oxo-2-phenylethyl)hydrazine-1-carbothioamide]
IC50 (equine BChE): 260.21 ± 0.23 µM | IC50 [1]: 220.22 ± 0.14 µM

CCOc1ccc(C=NNC(=S)NCC(=O)c2ccccc2O)cc1 [Compound 9, 2-(4-Ethoxybenzylidene)-N-(2-(2-hydroxyphenyl)-2-oxoethyl)hydrazine-1-carbothioamide]
IC50 (equine BChE): 147.2 ± 0.09 µM

CCOc1ccc(C=NNC(=S)NCC(=O)c2ccc(Cl)cc2Cl)cc1 [Compound 10, N-(2-(2,4-Dichlorophenyl)-2-oxoethyl)-2-(4-ethoxybenzylidene)hydrazine-1-carbothioamide]
IC50 [1]: 275.71 ± 0.12 µM

Cc1ccc(C(=O)CNC(=S)NN=Cc2ccc([N+](=O)[O-])cc2)cc1 [Compound 12, 2-(4-Nitrobenzylidene)-N-(2-oxo-2-(p-tolyl)ethyl)hydrazine-1-carbothioamide]
IC50 (equine BChE): 260.38 ± 0.25 µM | IC50 [1]: 280.24 ± 0.21 µM

O=C(CNC(=S)NN=Cc1ccc([N+](=O)[O-])cc1)c1ccccc1Br [Compound 17, N-(2-(2-Bromophenyl)-2-oxoethyl)-2-(4-nitrobenzylidene)hydrazine-1-carbothioamide]
IC50 (equine BChE): 150.4 ± 0.18 µM | IC50 [1]: 114.6 ± 0.15 µM
